In US20250154525A1, “PLANT VIRUS MOVEMENT PROTEINS AND METHODS OF USING SAME” (Molecular Transfer, Inc., priority 2016, published 2025):

Key:
[1] = tested on: HeLa Cells; assay: GFP plasmid transfection with DOTMA/DOPE plus surface ligand peptide, fluorescent plate reader (Example 1); assay type: cell-based; conditions: DOTMA/DOPE + peptide linked to R12 or K16; EF1Alpha eGFP plasmid; 42 hours
Experimental: (§1) Cells were plated to so that on the day of transfection the cells were 70% confluent in 96 well tissue culture plates. A DOMTA/DOPE Lipid solution (1:1 molar ratio) at 2 mg/mL in water were mixed with an equal volume cell surface ligand containing adhesion peptide, the plant virus movement protein, or peptide derived therefrom, that had the nucleic acid binding moiety RRRRRRRRRRRR (SEQ ID NO:109) or KKKKKKKKKKKKKKKK (SEQ ID NO: 102) covalently linked to the N-terminus, or C-terminus of each peptide during peptide synthesis. Peptides were at 2 mg/mL in water. The DOTMA/DOPE and the solution containing the cell surface ligand containing adhesion peptide, the plant virus movement protein, or peptide derived therefrom, surface ligand peptide the was diluted 1 to 1 (v/v) in water. DOMTA/DOPE/PEPTIDE solutions were added to 0.1 mL of a plasmid DNA solution (EF1Alpha eGFP plasmid) at 10 μg/mL in OptiMEM.
(§2) All solutions were at room temperature. A volume of 0.2 mL of a 10 μg/mL solution of DNA was aliquoted into each well of a non-tissue cultured treated plate. 1-12 μL of transfection reagents were added to DNA solutions respectively. The transfection reagent and DNA solution was mixed by pipetting up and down twice. Transfection complexes were formed for 10 minutes. After 10 minutes, 0.01 or 0.02 mL of the transfection complex was added to cells. HuVEC, HeLa, human adult keratinocytes, human primary adult fibroblast, and A549 cells all respectively received 0.01 mL of the transfection complex. Human skeletal muscle cells, mouse C2C12 cells, and Jurkat, cells received 0.02 mL of the transfection complex. Cells were incubated for 42 hours at 37° C. at 5% CO2. Plates were read on a fluorescent plate reader. Cells were also examined visually under a microscope to assess the extent of transfection (in terms of the percent of cells transfected) with a fluorescent microscope. Other modes of analysis, for example quantification with B-galactocidase or luciferase reports plasmids can also be used.
(§3) Surface ligand that caused increase expression of GFP over the lipid DOTMA with no surface ligand were considered to enhance transfection or had higher % cells transfected were considered to enhance transfection. Peptides that gave greater than 2-fold enhancement are noted in bold and could be further optimized by adding different transfection enhancers or could be used with different cationic lipids or polymers.
(§4) Tables 2-7, below, provide the results of the transfection enhancements with the various cell types, while Table 8 lists the peptides that were determined by visual inspection to enhance the transfection of the denoted cell lines over the lipid DOTMA.

[2] = tested on: HuVec Cells; assay: as above; assay type: cell-based; conditions: DOTMA/DOPE + peptide linked to R12 or K16; EF1Alpha eGFP plasmid; 42 hours
Experimental: as §1, §2, §3, §4

[3] = tested on: Human Fibroblast Cells; assay: as above; assay type: cell-based; conditions: DOTMA/DOPE + peptide linked to R12 or K16; EF1Alpha eGFP plasmid; 42 hours
Experimental: as §1, §2, §3, §4

[4] = tested on: Jurkat Cells; assay: as above; assay type: cell-based; conditions: DOTMA/DOPE + peptide linked to R12 or K16; EF1Alpha eGFP plasmid; 42 hours
Experimental: as §1, §2, §3, §4

[5] = tested on: NL-1 iPS Cells; assay: as above; assay type: cell-based; conditions: DOTMA/DOPE + peptide linked to R12 or K16; EF1Alpha eGFP plasmid; 42 hours
Experimental: as §1, §2, §3, §4

[6] = tested on: C2C12 Cells; assay: as above; assay type: cell-based, mouse; conditions: DOTMA/DOPE + peptide linked to R12 or K16; EF1Alpha eGFP plasmid; 42 hours
Experimental: as §1, §2, §3, §4

[7] = tested on: HeLa Cells; assay: GFP transfection with DOTMA/SEQ ID NO: 72 (fusogenic peptide)/peptide compared with Lipofectamine 2000; assay type: cell-based
Experimental: as §1, §2
The fusogenic peptide was added to the DOMTA/peptide formulation to achieve a final concentration of 0.1 mg/mL to see if transfection reagents were further enhanced by the addition of a fusogenic peptide and could provide higher transfection efficiency into HeLa cells and expression than the commercially available Lipofectamine 2000.

[8] = tested on: some examined cell types; assay: Summary of Example 1: transfection expression and % cells transfected over the no peptide control; assay type: cell-based; conditions: on some examined cell types
Experimental: as §1, §2, §3

[9] = 0.1 μL of DOTMA/SEQ ID NO: 72/Peptide in well of a 96 well plate
[10] = 0.2 μL of DOTMA/SEQ ID NO: 72/Peptide in well of a 96 well plate
[11] = 0.3 μL of DOTMA/SEQ ID NO: 72/Peptide in well of a 96 well plate
[12] = 0.4 μL of DOTMA/SEQ ID NO: 72/Peptide in well of a 96 well plate

Substance | Relative Fluorescence of Transfection of HeLa Cells (RF) [1] | Relative Fluorescence of Transfection of HuVec Cells (RF) [2] | Relative Fluorescence of Transfection of Human Fibroblast Cells (RF) [3] | Relative Fluorescence of Transfection of Jurkat Cells (RF) [4] | Relative Fluorescence of Transfection of NL-1 iPS Cells (RF) [5] | Relative Fluorescence of Transfection of C2C12 Cells (RF) [6] | Relative Fluorescence DOTMA/SEQ ID NO: 72/Peptide, HeLa Cells (RF) [7, 9] | Relative Fluorescence DOTMA/SEQ ID NO: 72/Peptide, HeLa Cells (RF) [7, 10] | Relative Fluorescence DOTMA/SEQ ID NO: 72/Peptide, HeLa Cells (RF) [7, 11] | Relative Fluorescence DOTMA/SEQ ID NO: 72/Peptide, HeLa Cells (RF) [7, 12] | transfection expression and % cells transfected over the no peptide control [8]
326 (RLVSYSGVLFFLK) [compound 326] | 18946 | 4932 | 3070 | 3018 | 9239 | 8553 | 6887 | 9487 | 10330 | 9227 | increased transfection expression and the % cells transfected
328 (NWRHISYITRFG) [compound 328] | 32528 | 3614 | 5641 | 4770 | 8611 | 5507 | 11037 | 12229 | 10801 | 10951 | increased transfection expression and the % cells transfected
336 (GEFYFDLRLKGDK) [compound 336] | 25262 | 5366 | 10449 | 4813 | 14875 | 9647 | 14442 | 16702 | 13434 | 11334 | increased transfection expression and the % cells transfected
341 (LRAHAVDVNG) [compound 341] | 4108 | 15906 | 2284 | 18042 | 20446 | 2141 | 6406 | 7469 | 8020 | 7546 | increased transfection expression and the % cells transfected
342 (TAGSCLRKFSTM) [compound 342] | 33666 | 12804 | 9525 | 12825 | 11493 | 9496 | 41299 | 36040 | 28841 | 18351 | increased transfection expression and the % cells transfected
343 (LFSHAVSSNG) [compound 343] | 5910 | 16239 | 4590 | 23499 | 21726 | 3218 | 6961 | 8626 | 8577 | 8160 | increased transfection expression and the % cells transfected
344 (KGHRGF) [compound 344] | 14415 | 11867 | 12704 | 10160 | 10895 | 1678 | 13315 | 16387 | 12564 | 12511 | increased transfection expression and the % cells transfected
347 (DLGTAGSCLRKFSTM) [compound 347] | 22527 | 20728 | 9255 | 17720 | 21865 | 4457 | 23188 | 21493 | 16814 | 14140 | increased transfection expression and the % cells transfected
348 (HQQDLGTAGSCLRKFSTM) [compound 348] | 22289 | 21214 | 11802 | 15585 | 21645 | 8625 | 17413 | 18615 | 16164 | 15054 | increased transfection expression and the % cells transfected
350 (SIGFRGDGQTC) [compound 350] | 13313 | 13163 | 7105 | 9184 | 19132 | 2631 | 24092 | 23238 | 19802 | 22255 | increased transfection expression and the % cells transfected
351 (LNRQELFPFG) [compound 351] | 12279 | 15379 | 8061 | 9730 | 24646 | 3530 | 7678 | 11499 | 10575 | 8791 | increased transfection expression and the % cells transfected
